# From patent publication US5312816A, “Method of combatting osteoporosis in mammalian subjects, utilizing organic boron compounds” (priority 1993, dated 1994)
# Columns and labels:
# [1] = molecular target: Acid phosphatase; assay: Mouse hepatic lysosomal acid phosphatase activity; assay type: biochemical; settings: Table XV; mouse hepatic, 60 min incubation
# Source text: (§1) 1. Cf1 male mouse hepatic 10% homogenates in 0.25M sucrose+0.001MEDTA,pH 7.2.
# (§2) Lysosomal Enzymes - free and total [triton X-100].
# (§3) 1. Acid phosphatase -beta glycerol-3-phosphate, pH 5.0, released IP 720 nm.
# Acid phosphatase activity -
# [2] = molecular target: Aryl sulphatase; assay: Mouse hepatic lysosomal aryl sulphatase activity; assay type: biochemical; settings: Table XV, 60 min incubation
# Source text: as §1, §2
# (§4) 3. Aryl sulphatase- p-nitrocatechol sulfate, pH
# (§5) 5. 8 p-nitro-catechol product 510 nm.
# [3] = molecular target: T1, Cathepsin D (Mus musculus, UniProt P18242); assay: Mouse hepatic lysosomal cathepsin D activity; assay type: biochemical
# T1 construct: azocasein assay pH 5.0
# Source text: as §1, §2
# (§6) 2. Acid Cathepsin D -azocasein-pH 5.0, hydrolytic azo-peptide produce 366 nm.
# Cathepsin azo casein activity -
# [4] = system: Cf1 male mice; assay: Anti-inflammatory screen, Winter's test, 2% carrageenan hind foot; assay type: in vivo; settings: Table XIV; unit inferred; unit assumed
# Experimental: Anti-inflammatory Screen- Cf1 - male mice-Winter's Test 2% carrageenan S.C. plantar surface of hind foot, drugs administered @8 or 10 mg/kg I.P. 2X
# Winter, C.A., et al, Proc. Soc.
# [5] = system: Cf1 male mice; assay: Hot plate tail flick test; assay type: in vivo; settings: Table XIV; unit not given
# [6] = system: Sprague Dawley male rats; assay: Anti-pleurisy screen, Evans blue + carrageenan; assay type: in vivo; settings: Table XIV; unit not given
# [7] = system: Trypsin; assay: Mouse macrophage trypsin (BAEE) activity; assay type: cell-based; settings: 60 min incubation, read-out: Trypsin BAEE IC50
# [8] = molecular target: T2, Pg. cyclooxygenase (Sus scrofa, UniProt A0A287ANF9); assay: Porcine seminal vesicles Pg. cyclooxygenase; assay type: biochemical; settings: Table XVI; 60 min incubation
# T2 construct: Porcine Seminal; from tissue; the methods section prints beef seminal vesicle
# [9] = molecular target: Commercial Collagenase; assay: Commercial collagenase (type not stated); assay type: biochemical; settings: Table XVI; 60 min incubation
# Source text: 3. Collagenase I, Clostridium histolyticum, bone, skin, tendon, blood vessel, dentine, GI. substrate: rat collagen, N-[propionate-2-3-^3 H] propionylated measured as dpm released.
# 4. Collagenase II, Clostridium histolyticum, cartilage collagen.
# [10] = molecular target: Aryl sulphatase; assay: Mouse macrophage aryl sulphatase activity; assay type: cell-based; settings: 60 min incubation, read-out: Aryl Sulphatase IC50
# [11] = molecular target: Elastase; assay: Mouse macrophage elastase activity; assay type: cell-based; settings: 60 min incubation, read-out: Elastase IC50
# [12] = system: Trypsin; assay: Mouse hepatic trypsin activity; assay type: biochemical; settings: Table XVI; 60 min incubation; read-out: Mouse Hepatic Trypsin IC50
# Source text: as §1
# (§7) 1. Trypsin- N-benzoyl-L-arginine ethyl ester pH 8.0, hydrolytic product 253 nm.
# [13] = system: Cf1 male mice; assay: Writhing reflex, 0.6% acetic acid; assay type: in vivo; settings: Table XIV; unit inferred; unit assumed
# Experimental: Writhing reflex- Cf1 -male mice- 0.6% acetic acid I.P. drugs administered @20 mg/kg/ I.P. 20 min. later - the # of stretches/10 min.
# Hendershot, L.C., et al, J.
# [14] = molecular target: Acid phosphatase; assay: Mouse macrophage acid phosphatase activity; assay type: cell-based; settings: 60 min incubation, read-out: Acid Phosphatase IC50
# [15] = molecular target: T1, Cathepsin D; assay: Mouse macrophage cathepsin D activity; assay type: cell-based; settings: Table XVII; mouse macrophage, 60 min incubation; read-out: Cathepsin D pH 5.0 IC50
# Source text: (§8) 3. Mouse macrophages J774A.1 BALB/c
# as §6
# [16] = molecular target: Prostaglandin cyclooxygenase; assay: Mouse macrophage prostaglandin cyclooxygenase activity; assay type: cell-based; settings: 60 min incubation, read-out: Prostaglandin Cyclooxygenase IC50
# Source text: as §8
# Prostaglandin synthetase purified beef seminal vesicle ^3 H arachidonic acid (86.2 Ci/mmol), tlc separation.
# [17] = system: Sprague Dawley male rats; assay: Chronic adjuvant arthritis screen, Mycobacterium butyricum; assay type: in vivo; settings: Table XIV; unit not given
# [18] = molecular target: T3, Cathepsin (Rattus norvegicus, UniProt P24268); assay: Rat PMNs cathepsin activity; assay type: cell-based; settings: pH 5; 5 × 10^-6 M, N=6; read-out: Rat PMNs Cathep.
# T3 construct: azocasein assay pH 5.0
# Source text: 2. PMNs-polymorphonuclear neutrophils-rat peritoneal cavity 0.5% oyster glycogen.
# as §6
# [19] = in vivo; settings: mouse, Table 1, N=6
# Experimental: Amine borane compounds (0 to 100 mg/kg) were administered to CF1 male mice as a single injection with six mice for each dosage. Mice were weighed daily and the number of deaths was recorded each day for a 14 day period. The LD50 value was determined by the procedure of S.C. Gad and C.S. Weil, "Statistics for Toxicologists" in Principles and Methods of Toxicology, A.W. Hayes, Ed., 2nd Edition, P 435-483 Raven Press, New York 1982.
# [20] = molecular target: T4, 5'-Lipoxygenase (Homo sapiens, UniProt P09917); assay: Human leukocyte 5'-lipoxygenase; assay type: cell-based
# T4 construct: human leukocyte tissue culture cells; endogenous in cells; host or cells: Human peripheral leukocytes, RPMI-1788
# T4 sequence (P09917 1-674): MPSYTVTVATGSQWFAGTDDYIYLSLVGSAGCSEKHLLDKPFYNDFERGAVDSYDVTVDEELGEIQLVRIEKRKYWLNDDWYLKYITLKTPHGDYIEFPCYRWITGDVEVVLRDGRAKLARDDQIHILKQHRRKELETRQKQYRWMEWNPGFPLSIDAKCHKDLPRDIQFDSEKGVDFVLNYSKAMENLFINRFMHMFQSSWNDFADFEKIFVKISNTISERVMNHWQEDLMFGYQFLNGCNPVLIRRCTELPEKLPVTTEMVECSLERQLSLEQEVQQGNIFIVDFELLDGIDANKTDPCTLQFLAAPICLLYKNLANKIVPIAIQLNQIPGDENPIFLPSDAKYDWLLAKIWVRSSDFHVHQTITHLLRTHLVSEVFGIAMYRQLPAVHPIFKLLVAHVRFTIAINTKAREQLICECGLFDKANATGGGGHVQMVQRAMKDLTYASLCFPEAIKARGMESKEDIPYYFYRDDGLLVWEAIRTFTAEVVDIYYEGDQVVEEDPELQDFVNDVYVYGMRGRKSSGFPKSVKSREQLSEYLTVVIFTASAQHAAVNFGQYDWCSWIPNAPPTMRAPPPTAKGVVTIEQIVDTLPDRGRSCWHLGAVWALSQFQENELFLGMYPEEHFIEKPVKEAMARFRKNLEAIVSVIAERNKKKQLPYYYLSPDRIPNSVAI
# [21] = system: Cathepsin; assay: Human leukocyte cathepsin; assay type: cell-based; settings: Table XIX; read-out: Human Leukocyte IC50 (head gives no enzyme; beside Cathepsin D)
# Source text: 5. Human peripheral leukocytes, RPMI-1788
# as §6
# [22] = system: Elastase; assay: Human osteoporosis fibroblasts elastase activity; assay type: cell-based; settings: Table XI; human osteoporosis fibroblasts, 60 min incubation; read-out: Elastase IC50
# Source text: 2. Elastase- N-succinyl-L-alanyl-L-alanine-p-nitroanilide, pH 8.0, p-nitro anilide 410 nm.
# [23] = system: Acid phosphatase; assay: Human osteoporosis fibroblasts acid phosphatase activity; assay type: cell-based; settings: Table X; human osteoporosis fibroblasts; read-out: Acid Phosphatase IC50
# Source text: as §3
# [24] = molecular target: T5, Cathepsin D (Homo sapiens, UniProt P07339); assay: Human osteoporosis fibroblasts cathepsin D (azo-casein) activity; assay type: cell-based; settings: Table X; human osteoporosis fibroblasts, DMEM +10% FCS + P/S; read-out: Cathepsin D IC50
# T5 construct: azocasein assay pH 5.0
# Source text: Osteoporosis Human Fibroblast-CRL-1140, Be SA1
# [25] = system: Sprague Dawley Rats; assay: Anti-inflammatory activity in Sprague Dawley rats; assay type: in vivo; settings: Table IV; 8 mg/kg I.P.
# [26] = system: Cf1 male mice; assay: Writhing reflex, 0.6% acetic acid; assay type: in vivo; settings: Mus musculus, ip; Table IV
# [27] = system: Trypsin; assay: Human osteoporosis fibroblasts trypsin (BAEE) activity; assay type: cell-based; settings: Table XI; human osteoporosis fibroblasts, 60 min incubation; read-out: Trypsin BAEE IC50
# Source text: as §7
# [28] = system: Prostaglandin cyclooxygenase; assay: Human osteoporosis fibroblasts prostaglandin cyclooxygenase activity; assay type: cell-based; settings: Table XI, 60 min incubation, read-out: Prostaglandin Cyclooxygense IC50
# [29] = system: Aryl sulphatase; assay: Human osteoporosis fibroblasts aryl sulphatase activity; assay type: cell-based; settings: Table X; human osteoporosis fibroblasts; read-out: Aryl Sulphatase IC50
# Source text: as §4, §5
# [30] = Table XV, mouse hepatic, 60 min incubation, read-out: Cathepsin D IC50
# [31] = read-out: Mouse Hepatic Cathepsin D IC50, Table XIX
# [32] = Table VII, mouse macrophage cultured cells
# T2 sequence (A0A287ANF9 25-600): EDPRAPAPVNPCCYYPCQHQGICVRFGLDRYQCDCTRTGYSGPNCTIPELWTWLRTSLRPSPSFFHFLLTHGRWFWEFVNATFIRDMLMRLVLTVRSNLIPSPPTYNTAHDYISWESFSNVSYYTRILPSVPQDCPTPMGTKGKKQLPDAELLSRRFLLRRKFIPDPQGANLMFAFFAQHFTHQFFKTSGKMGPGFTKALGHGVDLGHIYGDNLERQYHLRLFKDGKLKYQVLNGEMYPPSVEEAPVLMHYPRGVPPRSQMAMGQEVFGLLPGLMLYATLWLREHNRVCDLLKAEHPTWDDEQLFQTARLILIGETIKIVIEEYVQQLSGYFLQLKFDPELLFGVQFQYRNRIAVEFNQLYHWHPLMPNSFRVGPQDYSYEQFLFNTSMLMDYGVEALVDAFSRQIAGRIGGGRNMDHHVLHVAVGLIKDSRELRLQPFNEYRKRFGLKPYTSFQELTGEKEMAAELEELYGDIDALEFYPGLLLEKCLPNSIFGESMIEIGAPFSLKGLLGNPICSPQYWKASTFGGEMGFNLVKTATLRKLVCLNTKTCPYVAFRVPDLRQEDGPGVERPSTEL
# T1 sequence (P18242 65-410): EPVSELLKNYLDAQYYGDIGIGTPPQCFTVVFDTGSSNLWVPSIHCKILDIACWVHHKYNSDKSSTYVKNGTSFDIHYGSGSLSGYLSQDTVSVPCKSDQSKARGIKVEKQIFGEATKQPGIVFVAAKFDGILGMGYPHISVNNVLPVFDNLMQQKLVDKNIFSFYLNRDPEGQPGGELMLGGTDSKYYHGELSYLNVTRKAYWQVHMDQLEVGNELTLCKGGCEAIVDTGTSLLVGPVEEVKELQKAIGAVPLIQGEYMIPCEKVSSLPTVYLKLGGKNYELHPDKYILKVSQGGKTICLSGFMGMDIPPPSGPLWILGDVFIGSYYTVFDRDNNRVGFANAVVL
# T3 sequence (P24268 65-407): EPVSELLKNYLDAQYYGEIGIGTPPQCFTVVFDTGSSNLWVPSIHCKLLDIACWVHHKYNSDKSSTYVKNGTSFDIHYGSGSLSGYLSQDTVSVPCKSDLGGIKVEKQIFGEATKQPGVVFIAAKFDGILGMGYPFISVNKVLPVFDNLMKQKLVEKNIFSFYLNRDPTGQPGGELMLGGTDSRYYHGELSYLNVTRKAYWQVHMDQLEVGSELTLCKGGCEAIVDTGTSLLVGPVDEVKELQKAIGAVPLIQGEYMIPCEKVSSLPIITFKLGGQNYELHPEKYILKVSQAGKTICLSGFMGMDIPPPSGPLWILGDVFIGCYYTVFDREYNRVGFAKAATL
# T5 sequence (P07339 65-412): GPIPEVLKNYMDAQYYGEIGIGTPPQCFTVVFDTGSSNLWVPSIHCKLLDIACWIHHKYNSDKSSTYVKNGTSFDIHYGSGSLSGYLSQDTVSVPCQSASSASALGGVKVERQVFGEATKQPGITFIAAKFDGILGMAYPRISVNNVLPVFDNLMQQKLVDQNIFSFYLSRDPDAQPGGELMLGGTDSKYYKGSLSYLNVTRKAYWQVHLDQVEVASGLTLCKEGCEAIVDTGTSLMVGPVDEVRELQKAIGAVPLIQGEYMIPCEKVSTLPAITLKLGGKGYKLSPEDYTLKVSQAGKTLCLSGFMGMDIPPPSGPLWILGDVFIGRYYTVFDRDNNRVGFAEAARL
SMILES,IC50 [1] [µM],IC50 [2] [µM],"IC50 [3, 30] [µM]",Anti-Inflammation Cf1 Mice [4] [%],Tail Flick Mice [5],Anti-Pleurisy Rats [6],"IC50 ([7]; Table XVIII, mouse macrophage) [µM]",IC50 [8] [µM],IC50 [9] [µM],"IC50 ([10]; Table XVII, mouse macrophage) [µM]","IC50 ([11]; Table XVIII, mouse macrophage) [µM]",IC50 [12] [µM],Writhing Reflex Mice [13] [%],"IC50 ([14]; Table XVII, mouse macrophage) [µM]",IC50 [15] [µM],"IC50 ([16]; Table XVIII, mouse macrophage) [µM]",Anti-Arthritis Rats [17],further results
CC(C)=O.C[N+](C)(C)[BH2-]C(=O)[O-].O=[N+]([O-])[O-].[Ca+2] [Compound 28],7.66,3.05,4.58,65,169,50.1,2.38,2.57,495,2.38,5.93,9.99,66.4,3.08,2.38,1.92,,
C[N+](C)(C)[BH2-]C(=O)[O-].C[N+](C)(C)[BH2-]C(=O)[O-].NCCN.NCCN.[Cl-].[Co+3] [Compound 27],4.25,5.89,7.8,49.6,150,96.3,1.38,4.01,522,1.95,9.77,9.88,66.2,2.92,3.83,2.09,70.0,
CCOC(=O)[BH2-][N+](C)(C)C [Compound 6],,,,,,,,,,,,,,,,,,activity at 5 µM [18]: 16%; LD50 at 336 h [19]: 140 mg/kg
CC(C)[Si](OC[C@H]1O[C@@H](n2ccc(N)[n+]([BH2-]C#N)c2=O)C[C@@H]1O[Si](C(C)C)(C(C)C)C(C)C)(C(C)C)C(C)C [Compound 40],,,,,,,,,,,,,,,,,,"IC50 [3, 31]: 27.2 µM; IC50 [20]: 3.88 µM; IC50 [21]: 6.12 µM"
CC(C)[Si](OC[C@@H]1CC[C@H](n2ccc(N)[n+]([BH2-]C#N)c2=O)O1)(C(C)C)C(C)C [Compound 42],,,,,,,,,,,,,,,,,,"IC50 [3, 31]: 30.6 µM; IC50 [20]: 6.64 µM; IC50 [21]: 7.31 µM"
BC(=O)O [Compound 13],4,4.34,6.19,41.7,,,2.25,,,5.43,3.07,,,0.82,4.57,15.6,55.2,"IC50 [22]: 3.01 µM; IC50 [23]: 6.5 µM; IC50 ([7]; Table VIII, mouse macrophages): 2.25 µM; IC50 [24]: 1.19 µM; IC50 [10, 32]: 5.43 µM; Anti-Inflammatory Activity Sprague Dawley Rats [25]: 55 % Control; response vs control in vivo at 20 mg/kg [26]: 17.4%; IC50 ([11]; Table VIII, mouse macrophages): 3.07 µM; IC50 [14, 32]: 0.82 µM; IC50 [27]: 7.51 µM; IC50 [28]: 5.51 µM; IC50 [29]: 8.19 µM; IC50 ([16]; Table VIII, mouse macrophages): 6.79 µM"
[BH3-][NH+]1CCOCC1 [Compound 1],,,,,,,,,,,,,,,,,,"activity at 5 µM ([3]; pH 5, read-out: Mouse Liver Cathep.): 107%; activity at 5 µM [18]: 93%; LD50 at 336 h [19]: 475 mg/kg"
CC#N.CO.C[N+](C)(C)[BH2-]C(=O)[O-].C[N+](C)(C)[BH2-]C(=O)[O-].C[N+](C)(C)[BH2-]C(=O)[O-].C[N+](C)(C)[BH2-]C(=O)[O-].C[N+](C)(C)[BH2-]C(=O)[O-].C[N+](C)(C)[BH2-]C(=O)[O-].O.O=[N+]([O-])[O-].[Cr+3].[Cr+3].[Cr+3].[O-2] [Compound 26],6.99,7.73,5.47,58.5,184,40.0,2.1,2.14,567,1.2,5.09,9.96,85.4,2.48,2.49,1.62,78.0,
